According to US7629453B2, “NF-κB activating gene” (Asahi Kasei Pharma Corporation, priority 2000, dated 2009):
Strand notation (5' to 3'): a small letter for the sugar, then the base; units joined by * are phosphorothioate-linked, units joined directly phosphodiester-linked; [ ] holds rarer units or linkages, { } end groups; capitals alone tell only the bases. Where a SMILES comes first, the peptide text is derived from it. The star is where a group is joined. Cbz = O=C(OCc1ccccc1)*; d = 2'-deoxy (DNA); r = 2'-OH (RNA)

Legend:
Type in all cases: cell-based
gene of SEQ ID NO:88 [1] = experiment: Expression inhibition of the gene of SEQ ID NO:88 by double stranded nucleic acid (NF-κB luciferase reporter, EBNA cells); conditions: Lipofectamine 2000, versus cells without double stranded nucleic acid
gene of SEQ ID NO:88 [2] = experiment: as above; conditions: for relative luciferase activity (%): 10 pmol per well, 24 hours, firefly standardized with Renilla, control without double stranded nucleic acid = 100%; for luciferase activity / expression of the protein of SEQ ID NO: 87 (in words): EBNA cells, Lipofectamine 2000, versus cells without double stranded nucleic acid
Experimental: That is, using Lipofectamine 2000 (Invitrogen), an expression vector having the polynucleotide of SEQ ID NO:88, pNFkB-Luc, phRL-TK vector and double stranded nucleic acid (A) were co-transfected into EBNA cells, and after culturing, luciferase activity was measured.
EBNA cells (Invitrogen) were inoculated on DMEM medium containing 5% FBS in a 96-well cell culture plate to a cell density of 1.2×10^4 cells/100 μl/well, and cultured for 24 hours at 37° C. in the presence of 5% CO2. Next, using Lipofectamine 2000 (Invitrogen), 50 ng of an expression vector having the polynucleotide of SEQ ID NO:88 and 50 ng of pNFkB-Luc (STRATAGENE) and 10 ng of phRL-TK vector (Promega Corporation) used as an internal standard, were co-transfected with double stranded nucleic acid 88-1 (10 pmol) prepared in (1) above into 1 well. After culturing for 24 hours at 37° C., firefly luciferase activity and Renilla reniformis luciferase activity were measured using a Dual-Luciferase Reporter Assay System (Promega Corporation). Further, each of 88-2 (10 pmol), 88-3 (10 pmol), 88-4 (10 pmol), 88-5 (10 pmol) or 88-6 (10 pmol) was co-transfected into 1 well in place of 88-1 (10 pmol), and luciferase activity was measured in the same manner. In Table 1, values for activity represent relative values when firefly luciferase activity in the control experiment (cells into which double stranded nucleic acid has not been introduced) is established as 100%. (It should be noted that values for firefly luciferase activity were standardized with values for Renilla reniformis luciferase activity used as an internal standard, before using these values in calculations.)

NF-κB activation = experiment: NF-κB reporter activity inhibition by proteasome inhibitor in 293-EBNA cells cotransfected with NF-κB activating protein expression vector and pNFκB-Luc; conditions: MG-132 0.1, 0.5, 1.0 and 10 μM added 1 hour after transfection; 293-EBNA cells with vector for protein of SEQ ID NO: 5, 9, 17 ... 178; 24 hours
Experimental: 293-EBNA cells were seeded on 5% FBS containing DMEM medium in a 96-well cell culture plate to a final cell density of 1×10^4 cells/100 μl/well, and cultured for 24 hours at 37° C. in the presence of 5% CO2. Then, 50 ng of the expression vector comprising the gene encoding NF-κB activating protein of SEQ ID NO: 5, 9, 17, 21, 35, 37, 41, 53, 57, 63, 67, 71, 75, 81, 87, 91, 93, 97, 121, 123, 129, 154, 158, 162, 168, 170, 172, 176 or 178, and 50 ng of the reporter plasmid pNF κB-Luc were cotransfected into the cells in a well using FuGENE 6. After 1 hour, the proteasome inhibitor MG-132 (purchased form CALBIOCHEM) (Uehara T. et al., J. Biol. Chem. 274, p. 15875-15882 (1999); Wang X. C. et al., Invest. Ophathalmol. Vis. Sci. 40, p. 477-486) was added to the culture to final concentrations of 0.1 μM, 0.5 μM, 1.0 μM and 10 μM, respectively. After 24 hours of culture at 37° C., the reporter activity was measured using PIKKA GENE LT2.0.

Row | Compound | relative luciferase activity (%) (gene of SEQ ID NO:88 [2]) | luciferase activity / expression of the protein of SEQ ID NO: 87 (in words) (gene of SEQ ID NO:88 [2]) | other results
1 | 88-4: double stranded nucleic acid annealed from oligonucleotides A4 (SEQ ID NO: 191) and B4 (SEQ ID NO: 192) (chain 1 rGrArUrGrArCrArCrArGrArUrGrArArGrCrCrCdTdT; chain 2 rGrGrGrCrUrUrCrArUrCrUrGrUrGrUrCrArUrCdTdT; siRNA) | 8 | exhibited inhibition of firefly luciferase activity | luciferase activity / expression of the protein of SEQ ID NO: 87 (in words) (gene of SEQ ID NO:88 [1]; listed as (D)): similarly inhibited
2 | 88-3: double stranded nucleic acid annealed from oligonucleotides A3 (SEQ ID NO: 189) and B3 (SEQ ID NO: 190) (chain 1 rGrCrUrGrArArGrArArGrArGrGrUrGrUrUrCrCdTdT; chain 2 rGrGrArArCrArCrCrUrCrUrUrCrUrUrCrArGrCdTdT; siRNA) | 9 | exhibited inhibition of firefly luciferase activity | luciferase activity / expression of the protein of SEQ ID NO: 87 (in words) (gene of SEQ ID NO:88 [1]; listed as (C)): similarly inhibited
3 | 88-2: double stranded nucleic acid annealed from oligonucleotides A2 (SEQ ID NO: 187) and B2 (SEQ ID NO: 188) (chain 1 rGrArArGrUrCrUrGrArArGrArUrCrUrArUrCrCdTdT; chain 2 rGrGrArUrArGrArUrCrUrUrCrArGrArCrUrUrCdTdT; siRNA) | 12 | exhibited inhibition of firefly luciferase activity | luciferase activity / expression of the protein of SEQ ID NO: 87 (in words) (gene of SEQ ID NO:88 [1]; listed as (B)): similarly inhibited
4 | CC(C)C[C@@H](C=O)NC(=O)[C@H](CC(C)C)NC(=O)[C@H](CC(C)C)NC(=O)OCc1ccccc1 [MG132, MG-132] (Cbz-Leu-Leu-Leu-aldehyde) | – | – | expression of the reporter gene (NF-κB reporter activity) (NF-κB activation): inhibited the expression of the reporter gene
5 | 88-6: double stranded nucleic acid annealed from oligonucleotides A6 (SEQ ID NO: 195) and B6 (SEQ ID NO: 196) (chain 1 GAUGACUUUGGUAUCAAACTT; chain 2 GUUUGAUACCAAAGUCAUCTT; siRNA; sugars from the 5' end r19 d2, backbone not given here) | 7 | exhibited inhibition of firefly luciferase activity | luciferase activity / expression of the protein of SEQ ID NO: 87 (in words) (gene of SEQ ID NO:88 [1]; listed as (F)): similarly inhibited
6 | 88-5: double stranded nucleic acid annealed from oligonucleotides A5 (SEQ ID NO: 193) and B5 (SEQ ID NO: 194) (chain 1 GCCCUCAGAGUCCAGAAUCTT; chain 2 GAUUCUGGACUCUGAGGGCTT; siRNA; sugars from the 5' end r19 d2, backbone not given here) | 5 | exhibited inhibition of firefly luciferase activity | luciferase activity / expression of the protein of SEQ ID NO: 87 (in words) (gene of SEQ ID NO:88 [1]): similarly inhibited
7 | 88-1: double stranded nucleic acid annealed from oligonucleotides A1 (SEQ ID NO: 185) and B1 (SEQ ID NO: 186), targeting SEQ ID NO: 88 (chain 1 rGrUrCrCrArGrGrArUrArUrCrArUrGrArGrUrCdTdT; chain 2 rGrArCrUrCrArUrGrArUrArUrCrCrUrGrGrArCdTdT; siRNA) | 18 | exhibited inhibition of firefly luciferase activity | luciferase activity / expression of the protein of SEQ ID NO: 87 (in words) (gene of SEQ ID NO:88 [1]): markedly lower
